Test results published in US20240009190A1, “COMBINATION CANCER THERAPY USING CHK INHIBITOR” (SHANGHAI HUAYU BIOTECHNOLOGY CO., LTD., priority 2020, published 2024).

Columns and labels:
MC38 cells [1] = assay: MC38 tumor model in mPD-1-/- mPD-L1-/- hPD-1+/+ hPD-L1+/+ transgenic mice (Example 3); format: in vivo, C57BL/6-Pdcd1^em1(hPDCD1) Cd274^em1(hPD-L1)/Smoc mice
Experimental: MC38 cells were maintained at 37° C. in 5% CO2 in RPMI 1640 medium (10-040-CV, Corning cellgro) supplemented with 10% FBS (10270-106, GIBCO, Thermo Fisher Scientific), 100 U/ml penicillin and 100 U/ml streptomycin in 10-cm Petri dishes.
Female C57BL/6-Pdcd1^em1(hPDCD1) Cd274^em1(hPD-L1)/Smoc mice, 20-25 g (Shanghai Model Organisms), were subcutaneously injected with about 3×10^5 MC38 cells, respectively.
When tumors grew to 50-70 mm^3, these mice were randomly assigned to four groups, 8 mice per group, this day was designated as Day 0. From Day 0, the animals were administered with an anti-PD-1 antibody (Toripalimab, Shanghai Junshi Biosciences Co., Ltd. China) in saline at 40.0 mg/mL, an hIgG4 (Novoprotein, NovoPro Bioscience Inc.) in saline at 3.3 mg/mL, Compound 6 in saline at 8 mg/mL in combination with the anti-PD-1 antibody, and Compound 6 in combination with hIgG4, respectively, according to the dosing regimen shown in Table 8 above.
Mice were observed every day for their physical conditions and activities, and mice body weight and tumor volume were measured twice a week. The tumor volume (V) was calculated as (length×width^2)/2.
Mice in Group 1 and Group 2 were subjected to euthanasia at Day 14, and those from Group 3 and Group 4 on Day 21, from which tumors were collected and photographed. Mice body weights and tumor sizes were analyzed using the t-test in SPSS, and group differences were deemed statistically significant when the p-value was 0.05 or less. TGI and Zheng-Jun Jin's Q value were calculated.

MC38 cells [2] = assay: MC38 tumor model in transgenic mice, lower dose of anti-PD-1 antibody (Example 4); format: in vivo, C57BL/6-Pdcd1^em1(hPDCD1) Cd274^em1(hPD-L1)/Smoc mice; details: Compound 6 8 mg/kg IP QD × 14; anti-PD-1 or hIgG4 2.5 mg/kg IP BIW × 3
Experimental: The test of Example 3 was repeated in the same transgenic mouse model using a lower dose of anti-PD-1 antibody, i.e., 2.5 mg/kg anti-PD-1, with some other minor modifications.
In particular, female C57BL/6-Pdcd1^em1(hPDCD1) Cd274^em1(hPD-L1)/Smoc mice (Shanghai Model Organisms), 5-7 weeks old, were subcutaneously injected with about 3×10^5 MC38 cells, respectively.
When tumors grew to 50-100 mm^3, these mice were randomly assigned to four groups, 8 mice per group, this day was designated as Day 0. From Day 0, the animals were administered with an anti-PD-1 antibody (Toripalimab, Shanghai Junshi Biosciences Co., Ltd. China) in 5% GS (5% glucose solution) at 40 mg/mL, an hIgG4 (Novoprotein, NovoPro Bioscience Inc.) in 5% GS at 3.3 mg/mL, Compound 6 in 5% GS at 8 mg/mL in combination with the anti-PD-1 antibody, and Compound 6 in combination with hIgG4, respectively, according to the dosing regimen shown in Table 10 below.

MC38 cells [3] = assay: MC38 tumor model in transgenic mice, Compound 6, anti-PD-1 antibody and gemcitabine (Example 5); format: in vivo, C57BL/6-Pdcd1^em(hPDCD1) Cd274^em1(hPD-L1)/Smoc mice; details: Day 23; Compound 6 15 mg/kg IP QD × 14; GEM 20 mg/kg IV QW × 2; anti-PD-1 10 mg/kg IP Q5D × 3
Experimental: MC38 cells were maintained at 37° C. in 5% CO2 in RPMI 1640 medium (10-040-CV, Corning cellgro) supplemented with 10% FBS (10270-106, GIBCO) and used before the 10th subculture.
Female C57BL/6-Pdcd1^em(hPDCD1) Cd274^em1(hPD-L1)/Smoc mice (Shanghai Model Organisms), 20-25 g, were subcutaneously injected with about 5×10^5 MC38 cells, respectively.
When tumors grew to 50-70 mm^3, these mice were randomly assigned to 8 groups, 8 mice per group, this day was at Day 9. From Day 9, the animals were administered with gemcitabine (GEM) in saline at 20 mg/mL, an anti-PD-1 antibody (Toripalimab, Shanghai Junshi Biosciences Co., Ltd. China) in saline at 40 mg/mL, Compound 6 in saline at 8 mg/mL, Compound 6+gemcitabine, gemcitabine+anti-PD-1, Compound 6+anti-PD-1, Compound 6+gemcitabine+anti-PD-1, and the control vehicle (5% GS), respectively, according to the dosing regimen shown in Table 11 below.
Mice were observed every day for their physical conditions and activities, and mice body weight and tumor volume were measured every other day. The tumor volume (V) was calculated as (length×width^2)/2.
Mice body weights, and tumor sizes were analyzed using the t-test in SPSS, and group differences were deemed statistically significant when the p-value was 0.05 or less.
Tumor growth inhibition (TGI) was calculated by the following formula. Tumor growth inhibition=(average tumor size in vehicle group-average tumor size in administration group)/average tumor size in vehicle group×100%
Zheng-Jun Jin's Q value was calculated as described above.

[4] = patients receiving various doses; pooled analysis of 14 phase I-III studies; cited from earlier work
CT-26 WT cells [5] = assay: CT-26 WT subcutaneous tumor model, Compound 6 with anti-m-PD-1 antibody (Example 1); format: in vivo, BALB/c female mice; details: Day 27; Compound 6 35 mg/kg tail vein once per day; anti-m-PD-1 10 mg/kg IP once every five days, four times
Experimental: CT-26 WT cells were maintained at 37° C. in 5% CO2 in RPMI 1640 medium (10-040-CV, Corning cellgro) supplemented with 10% FBS (10270-106, GIBCO) and used before the 10th subculture.
At Day 0, 45 BALB/c female mice, 4-5 weeks old, were subcutaneously injected with about 200.0 μL of the CT-26 WT cell medium containing about 5×10^5 cells, respectively.
At Day 5, 32 tumor-bearing mice were randomly assigned to four groups according to their body weights, 8 mice per group. The remaining mice were subject to euthanasia. […]
(§1) Mice were observed every day for their physical conditions and activities, and mice body weight and tumor volume were measured every Tuesday, Thursday and Sunday. The tumor volume (V) was calculated as (length×width^2)/2.
(§2) At Day 27, mice were subject to euthanasia, from which tumors were collected, weighed and photographed. Mice body weights, tumor sizes and tumor weights were analyzed using the t-test in SPSS, and group differences were deemed statistically significant when the p-value was 0.05 or less.
Tumor growth inhibition (TGI) was calculated by the following two formulae. […]
Further, Zheng-Jun Jin's Q value was calculated using the formula Q=EA+B/(EA+EB−EA×EB) to assess the combined effect of the anti-PD-1 antibody and Compound 6, wherein EA+B, EA, and EB referred to the TGIs of the combination therapy, anti-PD-1 administration and Compound 6 administration, respectively. […]

[6] = Mice body weight and survival in CT-26 WT tumor model (Example 1); format: in vivo, BALB/c female mice; details: Day 27; Compound 6 35 mg/kg, anti-m-PD-1 10 mg/kg
Experimental: as §1, §2

CT-26 WT cells [7] = assay: CT-26 WT subcutaneous tumor model, CHK inhibitors at lower dose with anti-m-PD-1 antibody (Example 2); format: in vivo, BALB/c female mice; details: for Average tumor size: compounds 15 mg/kg tail vein once per day, anti-m-PD-1 10 mg/kg IP once every five days
Experimental: The anti-tumor effect of Compound 6 at a lower dose in combination with an anti-PD-1 antibody was studied in this Example. Further, three compounds obtained by structurally modifying Compound 6, i.e., Compound 6-1, Compound 6-2 and Compound 6-3, were tested alone or in combination with an anti-PD-1 antibody for their anti-tumor effects.
At Day 0, 105 BALB/c female mice, 4-5 weeks old, were subcutaneously injected with about 200.0 μL of the CT-26 WT cell medium containing about 5×10^5 cells, respectively.
At Day 5, 80 tumor-bearing mice were randomly assigned to ten groups according to their body weights, 8 mice per group. The remaining mice were subject to euthanasia.
The ten groups of animals were administered with an anti-m-PD-1 antibody (BE0146, BioXcell) in PBS (21-040-CVR, BioXcell) at 1.0 mg/mL, Compound 6 in saline at 1.5 mg/mL, Compound 6-1 in saline at 1.5 mg/mL, Compound 6-2 in saline at 1.5 mg/mL, Compound 6-3 in saline at 1.5 mg/mL, the anti-m-PD-1 antibody+Compound 6, the anti-m-PD-1 antibody+Compound 6-1, the anti-m-PD-1 antibody+Compound 6-2, the anti-m-PD-1 antibody+Compound 6-3, and the control vehicle (saline), respectively, at doses shown in Table 3 below.
as §1
as §2, with “23,” for “27,”, “less. Tumor weight based tumor growth inhibition (TGI) and Zheng-Jun Jin's Q value were calculated.” for “less.”

[8] = Mice body weight in CT-26 WT tumor model (Example 2); format: in vivo, BALB/c female mice; details: for Average body weight: compounds 15 mg/kg tail vein once per day, anti-m-PD-1 10 mg/kg IP once every five days
Experimental: as §1
as §2, with “23,” for “27,”, “less. Tumor weight based tumor growth inhibition (TGI) and Zheng-Jun Jin's Q value were calculated.” for “less.”

[9] = Day 23, compounds 15 mg/kg, anti-m-PD-1 10 mg/kg

Toripalimab [anti-PD-1]
Average tumor size (MC38 cells [1]; Day 0 (day of grouping, start of dosing)): 59.1 ± 0.4 mm^3
Average tumor size (MC38 cells [1]; Day 14, Compound 6 8 mg/kg IP QD Day 0-13, anti-PD-1 or hIgG4 3 mg/kg IP Q2D): 792.1 ± 207.1 mm^3
TGI (%) on D14 (MC38 cells [1]; Day 14, Compound 6 8 mg/kg IP QD, anti-PD-1 or hIgG4 3 mg/kg IP Q2D): 58%
TGI (MC38 cells [2]): 46.95%
TGI based on tumor sizes (MC38 cells [3]): 17.05%

Nc1ccn([C@@H]2O[C@H](CO)[C@@H](O)C2(F)F)c(=O)n1 [GEM, gemcitabine, reference compound]
TGI based on tumor sizes (MC38 cells [3]): 30.02%

ipilimumab
patients who experienced immune-related adverse effects [4]: 64%

NC(=O)c1nnc(N[C@H]2CCCNC2)c2cc(-c3cccc(F)c3)sc12 [Compound 6, 2-(3-fluorophenyl)-4-(3-piperidineamino)-thieno[2,3-d]pyridazine-7-carboxylic acid amide]
TGI - tumor size (CT-26 WT cells [5]): 72.74%
TGI - tumor weight (CT-26 WT cells [5]): 77.53%
average mice weight, tumor weight deducted [6]: 18.41 g
Average tumor size (CT-26 WT cells [7]; Day 9): 163.24 mm^3
Average tumor size (CT-26 WT cells [7]; Day 10): 220.45 mm^3
Average tumor size (CT-26 WT cells [7]; Day 12): 367.43 mm^3
Average tumor size (CT-26 WT cells [7]; Day 14): 494.61 mm^3
Average tumor size (CT-26 WT cells [7]; Day 16): 666.40 mm^3
Average tumor size (CT-26 WT cells [7]; Day 18): 770.93 mm^3
Average tumor size (CT-26 WT cells [7]; Day 20): 955.40 mm^3
Average tumor size (CT-26 WT cells [7]; Day 22): 1094.31 mm^3
Average tumor size (CT-26 WT cells [7]; Day 23): 1071.65 mm^3
Tumor weight based TGI (CT-26 WT cells [7]; [9]): 52.30%
Tumor weight, Average (CT-26 WT cells [7]; Day 23, group average of 8 mice): 1.35 g
Tumor weight, Mouse no. 1 (CT-26 WT cells [7]; Day 23, individual mouse): 0.95 g
Tumor weight, Mouse no. 2 (CT-26 WT cells [7]; Day 23, individual mouse): 0.28 g
Tumor weight, Mouse no. 3 (CT-26 WT cells [7]; Day 23, individual mouse): 0.59 g
Tumor weight, Mouse no. 4 (CT-26 WT cells [7]; Day 23, individual mouse): 2.43 g
Tumor weight, Mouse no. 5 (CT-26 WT cells [7]; Day 23, individual mouse): 2.97 g
Tumor weight, Mouse no. 6 (CT-26 WT cells [7]; Day 23, individual mouse): 0.97 g
Tumor weight, Mouse no. 7 (CT-26 WT cells [7]; Day 23, individual mouse): 2.04 g
Tumor weight, Mouse no. 8 (CT-26 WT cells [7]; Day 23, individual mouse): 0.57 g
TGI based on tumor sizes (MC38 cells [3]): 52.53%
Average body weight ([8]; Day 9): 16.39 g
Average body weight ([8]; Day 10): 16.85 g
Average body weight ([8]; Day 12): 16.87 g
Average body weight ([8]; Day 14): 17.03 g
Average body weight ([8]; Day 16): 17.88 g
Average body weight ([8]; Day 18): 17.89 g
Average body weight ([8]; Day 20): 18.25 g
Average body weight ([8]; Day 22): 18.37 g
Average body weight ([8]; Day 23): 18.98 g
average mice weight, tumor weight deducted [8, 9]: 17.63 g
